Laboratory results reported in patent US6338963B1, “Use of carbon monoxide dependent guanylyl cyclase modifiers to stimulate neuritogenesis” (NeoTherapeutics, Inc., priority 1994, dated 2002).
Read-outs that look alike come from different tables or passages of the source.

Legend:
bFGF = test: Summary of effects on growth factor mRNA and protein (Table R): bFGF; set-up: key: ± = mRNA; + = protein; nt = not tested
Text: The constellation of effects of AIT-082 on production of mRNA encoding growth factors and on production of growth factor proteins is shown in Table R. The results summarized in […] show both transcriptional and translational effects on growth factors that are in the categories of neurotrophins, pleiotrophins, members of the S100 family of EF hand calcium binding proteins, and members of the TGFβ superfamily. As indicated, effects have been shown at both the mRNA (transcriptional) and protein (translational) levels.

BDNF mRNA [1] = test: Northern blot of neurotrophin mRNA from astrocytes: BDNF; type: cell-based, NIH Swiss mice; set-up: key: The conditions which produced a detectable amount of each of the neurotrophin mRNAs are indicated by a “+”; a “++” indicating that at least twice the detectable amount was present; Those blots which were negative are indicated by a “−”; settings: 24 hours
Protocol: Induction of neurotrophin mRNA was determined by northern blot analysis of astrocytes cultured with AIT-082, NGF, or both. The cells were harvested and RNA extracted at 24 hours after treatment.
More particularly, astrocytes from the cerebral cortex of NIH Swiss mice (Harlan) were isolated. Briefly, newborn pups (0-24 hours) were decapitated. Their brains were removed under aseptic conditions and were placed in modified Dulbecco's medium (DMEM) containing 20% heat-inactivated horse serum (Hyclone) (“complete medium”). The neopallium was then dissected from each cerebral hemisphere and minced into 1 mm cubes.
The astrocytes were then isolated by mechanical dissociation. The cubes were vortexed at maximum speed for one minute. The cell suspension was then passed first through 75 mm Nitex then through 10 mm Nitex. The resulting cell suspension was diluted in complete medium to a final concentration of one brain per 10 ml of complete medium. Ten milliliters of the diluted cell suspension was added to each 100 mm Falcon tissue culture plate (Fisher). After 3 days the medium was replaced with 10 ml fresh complete medium and subsequently was replaced twice weekly with DMEM containing 10% heat inactivated horse serum (“growth medium”). After two weeks in culture the astrocytes formed a confluent monolayer.
For RNA extraction, astrocytes were trypsinized. The astrocytes were then replated onto 100 mm PORN coated plates at a cell density of 10^6 cells per plate (10 ml growth medium). […]
The blots were probed with ^32P-labeled cDNA (NGF, NT-3 and BDNF probes) or oligonucleotide probe (FGF-2) by hybridization in Piperazine-N,N′-bis-(2-ethanesulfonic acid) (PIPES) buffer (50 mM PIPES, pH 6.8; 50 mM NaH2PO4; 0.1 M NaCl; 5% SDS and 1 mM EDTA) overnight at 50° C. […] Various concentrations ([…] of total RNA), as determined by spectrophotometry, of each sample were blotted and probed so that quantification could be done after insuring a linear film response. Quantification was performed using MCID Image Analysis (St. Catherine's, Ontario, Canada). […]

S100β protein = test: Western blot of astrocyte cytosolic proteins: S100β; type: cell-based, rat; settings: 100 μM AIT-082
acetylcholine receptors = type: binding, mice; settings: for number of receptors (B max): mice treated 30 mg/kg 2 hours prior to sacrifice
mice = test: Exploratory activity in novel large cage; type: in vivo; settings: 30 minutes
Protocol: To measure exploratory behavior, subjects received saline or AIT-082 administration, were placed in a novel large cage (25×48×16 cm, W×L×H), and movement was measured at one-minute intervals for 30 minutes. The large cage (San Diego Instruments, San Diego, Calif.) was equipped with vertical detectors and rearing movements were also recorded.

BDNF mRNA [2] = test: RT-PCR of growth factor mRNA after T8 spinal cord hemisection: BDNF; type: in vivo, Wistar rats
rat cultured astrocytes = test: Release of radioactively labeled adenine-based purines from rat cultured astrocytes; type: cell-based; settings: 300 μM, 1 hour
Protocol: The experiments were carried out on cultured astrocytes of rat hippocampus at the fourth day in vitro (DIV), obtained from primary cultures replated in 35 mm Petri dishes ([…] cells/dish) and preloaded with [^3H]-adenosine (5×10^−8 M for a specific activity of 20.0 Ci/mM) for 30 minutes at 37° C.
The effect of AIT-082 on the proportional release of radioactively labeled adenine nucleosides and nucleotides from rat cultured astrocytes is shown in FIGS. 29A and 29B. Culture medium collected during the first hour of the release was analyzed by high performance liquid chromatography (HPLC) and the radioactivity associated with the different adenine compounds was measured and expressed as a percentage of the total radioactivity released. The results are shown for ATP, ADP, and AMP in FIG. 29A, and for adenosine, inosine, and hypoxanthine in FIG. 29B.

Structure (SMILES) | bFGF, effect on mRNA/protein production (bFGF; Aged Brain) | bFGF, effect on mRNA/protein production (bFGF; Lesioned Brain) | BDNF mRNA (BDNF mRNA [1]; AIT-082 100 mM) | BDNF mRNA (BDNF mRNA [1]; AIT-082 + NGF (40 ng/ml)) | ex novo synthesis of S100β protein (S100β protein) | affinity (Kd) for QNB (acetylcholine receptors) | number of receptors (B max) (acetylcholine receptors; cortex) | number of receptors (B max) (acetylcholine receptors; striatum) | exploratory activity (mice) | BDNF mRNA level (BDNF mRNA [2]; at the level of the lesion) | BDNF mRNA level (BDNF mRNA [2]; caudal to lesion, 7 days) | BDNF mRNA level (BDNF mRNA [2]; rostral to lesion, 3 days, 20 mg/kg day in drinking water, sham-operated over lesion animals) | BDNF mRNA level (BDNF mRNA [2]; rostral to lesion, 7 days, lesioned treated vs lesioned not treated) | ADP, proportional release (rat cultured astrocytes) | Adenosine, proportional release (rat cultured astrocytes) | Inosine, proportional release (rat cultured astrocytes)
O=C(CCn1cnc2c(=O)[nH]cnc21)Nc1ccc(C(=O)O)cc1 [AIT-082, N-4-carboxyphenyl-3-(6-oxohydropurin-9-yl)propanamide] | ± | ± | + | + | did not stimulate ex novo synthesis of S100β protein | no effect | decrease | increase | No effects were noted | no significant differences | no significant effects | significantly increased | significantly higher | – | – | –
Nc1nc2c(ncn2[C@@H]2O[C@H](CO)[C@@H](O)[C@H]2O)c(=O)[nH]1 [guanosine] | – | – | – | – | – | – | – | – | – | – | – | – | – | (6.5 ± 0.7) percentage of the total [^3H]-purines released | (11.9 ± 0.8) percentage of the total [^3H]-purines released | (36.0 ± 3.9) percentage of the total [^3H]-purines released
